target: c-Myc template DNA (c-myc quadruplex); test: Quadruplex binding / stop assay (Taq polymerase arrest, capillary electrophoresis); conditions: read-out: Stop Data c-Myc μM; concentration at which 50% of the DNA was arrested (arrested:full-length 1:1)

Compound	IC50 [µM]
N[C@@H]1CCN(C(=O)c2cn3c4c(c(NCCN5CCOCC5)c(F)cc4c2=O)Oc2c-3ccc3ccccc23)C1 [compound 84]	2.5
CN1CCCC1CCNc1c(F)cc2c(=O)c(C(=O)N3CC[C@@H](N)C3)cn3c2c1Oc1c-3ccc2ccccc12 (some centres unmarked) [compound 85]	2.5
N[C@@H]1CCN(C(=O)c2cn3c4c(c(NCCN5CCCC5)c(F)cc4c2=O)Oc2c-3ccc3ccccc23)C1 [compound 86]	2.5
CN1CCCC1CCNc1c(F)cc2c(=O)c(C(=O)NCCN3CCCC3)cn3c2c1Oc1cc2c(cc1-3)oc1ccccc12 (centres unmarked) [compound 87]	2.5
CN1CCN(CCCNC(=O)c2cn3c4c(c(NC(=O)CCN5CCCC5)c(F)cc4c2=O)Oc2cc4ccccc4cc2-3)CC1 [compound 88]	2.5
CN1CCCC1CCNC(=O)c1cn2c3c(c(NC(=O)CCN4CCCC4)c(F)cc3c1=O)Oc1cc3ccccc3cc1-2 (centres unmarked) [compound 89]	2.5
O=C(CCN1CCCC1)Nc1c(F)cc2c(=O)c(C(=O)NCCN3CCCC3)cn3c2c1Oc1cc2ccccc2cc1-3 [compound 90]	2.5
CN1CCN(CCCNC(=O)c2cn3c4cc5c(=O)c6ccccc6c(=O)c5cc4oc4c(N5CCC(N)C5)c(F)cc(c2=O)c43)CC1 (centres unmarked) [compound 91]	2.5
CN1CCN(C(=O)c2cn3c4cc5c(=O)c6ccccc6c(=O)c5cc4oc4c(N5CCC(N)C5)c(F)cc(c2=O)c43)CC1 (centres unmarked) [compound 92]	2.5
CN1CCCC1CCNc1c(F)cc2c(=O)c(C(=O)N3CCC(N)C3)cn3c4cc5c(=O)c6ccccc6c(=O)c5cc4oc1c23 (centres unmarked) [compound 93]	2.5
NC1CCN(C(=O)c2cn3c4cc5c(=O)c6ccccc6c(=O)c5cc4oc4c(NCCCN5CCOCC5)c(F)cc(c2=O)c43)C1 (centres unmarked) [compound 94]	2.5
CN1CCN(CCCNc2c(F)cc3c(=O)c(C(=O)N4CCC(N)C4)cn4c5cc6c(=O)c7ccccc7c(=O)c6cc5oc2c34)CC1 (centres unmarked) [compound 95]	2.5
CN(C)CCCCNc1c(F)cc2c(=O)c(C(=O)N3CCC(N)C3)cn3c4cc5c(=O)c6ccccc6c(=O)c5cc4oc1c23 (centres unmarked) [compound 96]	2.5
CN1CCN(c2c(F)cc3c(=O)c(C(=O)N4CCC(N)C4)cn4c5cc6c(=O)c7ccccc7c(=O)c6cc5oc2c34)CC1 (centres unmarked) [compound 97]	2.5
CN(C)/C=N/C1CCN(c2c(F)cc3c(=O)c(C(=O)NCCC4CCCN4C)cn4c3c2Oc2cc3ccccc3cc2-4)C1 (centres unmarked) [compound 98]	2.5
NCc1cn2c3c(c(N4CCC(N)C4)c(F)cc3c1=O)Oc1cc3ccccc3cc1-2 (centres unmarked) [compound 99]	2.5
COc1cccc(CCNc2c(F)cc3c(=O)c(C(=O)NCCC4CCCN4C)cn4c3c2Oc2cc3ccccc3cc2-4)c1OC (centres unmarked) [compound 100]	2.5
CN1CCCC1CCNC(=O)c1cn2c3c(c(F)c(F)cc3c1=O)Oc1cc3ccccc3cc1-2 (centres unmarked) [compound 101]	2.25
N[C@@H]1CCN(c2c(F)cc3c(=O)c(C(=O)NCCCN4CCOCC4)cn4c3c2Oc2c-4ccc3ccccc23)C1 [compound 103]	1.8
O=C(NCCN1CCCC1)c1cn2c3c(c(F)c(F)cc3c1=O)Oc1cc3c(cc1-2)oc1ccccc13 [compound 113]	1.75
CN1CCCC1CCNc1c(F)cc2c(=O)c(-c3nc4ccccc4s3)cn3c2c1Oc1cc2ccccc2cc1-3 (centres unmarked) [compound 114]	1.75
O=C(c1cn2c3c(c(NCCN4CCCCC4)c(F)cc3c1=O)Oc1cc3ccccc3cc1-2)N1CCOCC1 [compound 115]	1.75

Compound	IC50 [µM]
O=C(c1cn2c3c(c(NC4CCNC4)c(F)cc3c1=O)Oc1cc3ccccc3cc1-2)N1CCOCC1 (centres unmarked) [compound 116]	1.75
O=C(c1cn2c3c(c(NCCCNC4CCCCC4)c(F)cc3c1=O)Oc1cc3ccccc3cc1-2)N1CCOCC1 [compound 117]	1.75
O=C(Nc1nc2ccccc2s1)c1cn2c3c(c(NCCN4CCCC4)c(F)cc3c1=O)Oc1ccccc1-2 [compound 118]	1.75
CN1CCN(CCCNc2c(F)cc3c(=O)c(C(=O)NCCCN4CCOCC4)cn4c3c2Oc2cc3ccccc3cc2-4)CC1 [compound 119]	1.75
CN1CCCC1CCNC(=O)c1cn2c3c(c(N4CC[C@@H](NC(=O)OC(C)(C)C)C4)c(F)cc3c1=O)Oc1cc3ccccc3cc1-2 (some centres unmarked) [compound 120]	1.75
CC(C)(C)OC(=O)N[C@@H]1CCN(c2c(F)cc3c(=O)c(C(=O)NCCN4CCCC4)cn4c3c2Oc2cc3ccccc3cc2-4)C1 [compound 121]	1.75
CN1CCCC1CCNc1c(F)cc2c(=O)c(C(=O)NCCCN3CCOCC3)cn3c2c1Oc1cc2ccccc2cc1-3 (centres unmarked) [compound 122]	1.75
CN1CCN(CCCNC(=O)c2cn3c4c(c(NCCC5CCCN5C)c(F)cc4c2=O)Oc2cc4ccccc4cc2-3)CC1 (centres unmarked) [compound 123]	1.75
CN1CCCC1CCNC(=O)c1cn2c3c(c(NCCC4CCCN4C)c(F)cc3c1=O)Oc1cc3ccccc3cc1-2 (centres unmarked) [compound 124]	1.75
CN(C)CCCCNC(=O)c1cn2c3c(c(NCCC4CCCN4C)c(F)cc3c1=O)Oc1cc3ccccc3cc1-2 (centres unmarked) [compound 125]	1.75
CN(C)CCCCNC(=O)c1cn2c3c(c(NCCCCN(C)C)c(F)cc3c1=O)Oc1cc3ccccc3cc1-2 [compound 126]	1.75
CN1CCN(CCCNC(=O)c2cn3c4c(c(NCCCN5CCOCC5)c(F)cc4c2=O)Oc2c-3ccc3ccccc23)CC1 [compound 127]	1.75
CN1CCCC1CCNC(=O)c1cn2c3c(c(NCCCN4CCOCC4)c(F)cc3c1=O)Oc1c-2ccc2ccccc12 (centres unmarked) [compound 128]	1.75
CN(C)CCCCNC(=O)c1cn2c3c(c(NCCCN4CCOCC4)c(F)cc3c1=O)Oc1c-2ccc2ccccc12 [compound 129]	1.75
CN1CCN(CCCNC(=O)c2cn3c4c(c(NCCN5CCOCC5)c(F)cc4c2=O)Oc2c-3ccc3ccccc23)CC1 [compound 130]	1.75
CN1CCCC1CCNC(=O)c1cn2c3c(c(NCCN4CCOCC4)c(F)cc3c1=O)Oc1c-2ccc2ccccc12 (centres unmarked) [compound 131]	1.75
CN1CCCC1CCNC(=O)c1cn2c3c(c(N4CC[C@@H](NC(=O)OC(C)(C)C)C4)c(F)cc3c1=O)Oc1c-2ccc2ccccc12 (some centres unmarked) [compound 132]	1.75
CC(C)(C)OC(=O)N[C@@H]1CCN(c2c(F)cc3c(=O)c(C(=O)NCCN4CCCC4)cn4c3c2Oc2c-4ccc3ccccc23)C1 [compound 133]	1.75
CN1CCCC1CCNc1c(F)cc2c(=O)c(C(=O)NCCN3CCOCC3)cn3c2c1Oc1c-3ccc2ccccc12 (centres unmarked) [compound 134]	1.75
CN1CCCC1CCNc1c(F)cc2c(=O)c(C(=O)NCCCn3ccnc3)cn3c2c1Oc1c-3ccc2ccccc12 (centres unmarked) [compound 135]	1.75
CN(C)c1ccc(NC(=O)c2cn3c4c(c(NCCC5CCCN5C)c(F)cc4c2=O)Oc2c-3ccc3ccccc23)cc1 (centres unmarked) [compound 136]	1.75
O=C(NCCCN1CCOCC1)c1cn2c3c(c(NCCN4CCCC4)c(F)cc3c1=O)Oc1c-2ccc2ccccc12 [compound 137]	1.75

Compound	IC50 [µM]
CN1CCCC1CCNC(=O)c1cn2c3c(c(NCCN4CCCC4)c(F)cc3c1=O)Oc1c-2ccc2ccccc12 (centres unmarked) [compound 138]	1.75
O=C(NCCN1CCCC1)c1cn2c3c(c(NCCN4CCCC4)c(F)cc3c1=O)Oc1c-2ccc2ccccc12 [compound 139]	1.75
O=C(NCCCn1ccnc1)c1cn2c3c(c(NCCN4CCCC4)c(F)cc3c1=O)Oc1c-2ccc2ccccc12 [compound 140]	1.75
CN(C)CCCCNc1c(F)cc2c(=O)c(C(=O)NCCN3CCOCC3)cn3c2c1Oc1c-3ccc2ccccc12 [compound 141]	1.75
CN(C)CCCCNc1c(F)cc2c(=O)c(C(=O)NCCCn3ccnc3)cn3c2c1Oc1c-3ccc2ccccc12 [compound 142]	1.75
O=C(NCCCN1CCOCC1)c1cn2c3c(c(NCCCN4CCOCC4)c(F)cc3c1=O)Oc1cc3c(cc1-2)oc1ccccc13 [compound 143]	1.75
CN1CCN(CCCNC(=O)c2cn3c4c(c(NCCCN5CCOCC5)c(F)cc4c2=O)Oc2cc4c(cc2-3)oc2ccccc24)CC1 [compound 144]	1.75
CN(C)CCCCNC(=O)c1cn2c3c(c(NCCCN4CCOCC4)c(F)cc3c1=O)Oc1cc3c(cc1-2)oc1ccccc13 [compound 145]	1.75
CN1CCN(CCCNC(=O)c2cn3c4c(c(NCCN5CCOCC5)c(F)cc4c2=O)Oc2cc4c(cc2-3)oc2ccccc24)CC1 [compound 146]	1.75
CN1CCCC1CCNC(=O)c1cn2c3c(c(NCCN4CCOCC4)c(F)cc3c1=O)Oc1cc3c(cc1-2)oc1ccccc13 (centres unmarked) [compound 147]	1.75
O=C(NCCN1CCCC1)c1cn2c3c(c(NCCN4CCOCC4)c(F)cc3c1=O)Oc1cc3c(cc1-2)oc1ccccc13 [compound 148]	1.75
CN1CCN(CCCNc2c(F)cc3c(=O)c(C(=O)NCCCN4CCOCC4)cn4c3c2Oc2cc3c(cc2-4)oc2ccccc23)CC1 [compound 149]	1.75
CN1CCN(CCCNc2c(F)cc3c(=O)c(C(=O)NCCN4CCOCC4)cn4c3c2Oc2cc3c(cc2-4)oc2ccccc23)CC1 [compound 150]	1.75
CN1CCN(CCCNC(=O)c2cn3c4c(c(NCCCN5CCN(C)CC5)c(F)cc4c2=O)Oc2cc4c(cc2-3)oc2ccccc24)CC1 [compound 151]	1.75
CN1CCN(CCCNc2c(F)cc3c(=O)c(C(=O)NCCN4CCCC4)cn4c3c2Oc2cc3c(cc2-4)oc2ccccc23)CC1 [compound 152]	1.75
CN(C)CCCCNC(=O)c1cn2c3c(c(NCCCN4CCN(C)CC4)c(F)cc3c1=O)Oc1cc3c(cc1-2)oc1ccccc13 [compound 153]	1.75
CN1CCN(CCCNc2c(F)cc3c(=O)c(C(=O)N4CCN(C)CC4)cn4c3c2Oc2cc3c(cc2-4)oc2ccccc23)CC1 [compound 154]	1.75
CN(C)CCCCNC(=O)c1cn2c3c(c(N4CCC(NC(=O)OC(C)(C)C)C4)c(F)cc3c1=O)Oc1cc3c(cc1-2)oc1ccccc13 (centres unmarked) [compound 155]	1.75
CN(C)CCCCNC(=O)c1cn2c3c(c(N4CC[C@@H](N)C4)c(F)cc3c1=O)Oc1c-2ccc2ccccc12 [compound 156]	1.75
N[C@@H]1CCN(c2c(F)cc3c(=O)c(C(=O)NCCCn4ccnc4)cn4c3c2Oc2c-4ccc3ccccc23)C1 [compound 157]	1.75
CN1CCCC1CCNc1c(F)cc2c(=O)c(C(=O)NCCN3CCOCC3)cn3c2c1Oc1cc2c(cc1-3)oc1ccccc12 (centres unmarked) [compound 158]	1.75

— US7507727B2, “Substituted quinobenzoxazine analogs and methods of using thereof” (Cylene Pharmaceuticals, Inc., priority 2003, dated 2009)
